Literature values as cited in patent US7378519B2, “Adduct of topiramate and tramadol hydrochloride and uses thereof” (Cilag GmbH International, priority 2002, dated 2008).
Counter-ions that a name gives are not always drawn.

Test system: Chung model of post-nerve constriction injury
Conditions: each drug alone, as the dose is escalated

| Structure (SMILES) | MPE (Maximum Possible Effect) reached |
| --- | --- |
| CC1(C)O[C@@H]2[C@@H](CO[C@@]3(COS(N)(=O)=O)OC(C)(C)O[C@@H]23)O1 [topiramate, 2,3:4,5-bis-O-(1-methylethylidene)-β-D-fructopyranose sulfamate] | 100 % MPE |
| COc1cccc(C2(O)CCCCC2CN(C)C)c1 (single isomer, unassigned) [tramadol hydrochloride, (1R,2R or 1S,2S)-2-[(dimethylamino)methyl]-1-(3-methoxyphenyl)-cyclohexan-1-ol] | 100 % MPE |
